How the values were obtained:
Format in all cases: cell-based
HCC-2998 = test: cells; conditions: HCC-2998 (Colon Cancer), 10 μM, 48 hours
MDA-MB-468 = test: cells; conditions: MDA-MB-468 (Breast Cancer), 10 μM, 48 hours
OVCAR-3 = test: cells; conditions: OVCAR-3 (Ovarian Cancer), 10 μM, 48 hours
UO-31 = test: cells; conditions: UO-31 (Renal Cancer), 10 μM, 48 hours
NCI/ADR-RES = test: cells; conditions: NCI/ADR-RES (Ovarian Cancer), 10 μM, 48 hours
MOLT-4 = test: cells; conditions: MOLT-4 (Leukemia), 10 μM, 48 hours
RXF 393 = test: cells; conditions: RXF 393 (Renal Cancer), 10 μM, 48 hours
HOP-92 = test: cells; conditions: HOP-92 (Non-Small Cell Lung Cancer), 10 μM, 48 hours
SK-MEL-2 = test: cells; conditions: SK-MEL-2 (Melanoma), 10 μM, 48 hours
KM12 = test: cells; conditions: KM12 (Colon Cancer), 10 μM, 48 hours
RPMI-8226 = test: cells; conditions: RPMI-8226 (Leukemia), 10 μM, 48 hours
SF-268 = test: cells; conditions: SF-268 (CNS Cancer), 10 μM, 48 hours
UACC-62 = test: cells; conditions: UACC-62 (Melanoma), 10 μM, 48 hours
OVCAR-8 = test: cells; conditions: OVCAR-8 (Ovarian Cancer), 10 μM, 48 hours
SN12C = test: cells; conditions: SN12C (Renal Cancer), 10 μM, 48 hours
PC-3 = test: cells; conditions: PC-3 (Prostate Cancer), 10 μM, 48 hours
K-562 = test: cells; conditions: K-562 (Leukemia), 10 μM, 48 hours
OVCAR-5 = test: cells; conditions: OVCAR-5 (Ovarian Cancer), 10 μM, 48 hours
SNB-75 = test: cells; conditions: SNB-75 (CNS Cancer), 10 μM, 48 hours
HT29 = test: cells; conditions: HT29 (Colon Cancer), 10 μM, 48 hours
SF-539 = test: cells; conditions: SF-539 (CNS Cancer), 10 μM, 48 hours
COLO 205 = test: cells; conditions: COLO 205 (Colon Cancer), 10 μM, 48 hours
HCT-116 = test: cells; conditions: HCT-116 (Colon Cancer), 10 μM, 48 hours
HS 578T = test: cells; conditions: HS 578T (Breast Cancer), 10 μM, 48 hours
HCT-15 = test: cells; conditions: HCT-15 (Colon Cancer), 10 μM, 48 hours
M14 = test: cells; conditions: M14 (Melanoma), 10 μM, 48 hours
A498 = test: cells; conditions: A498 (Renal Cancer), 10 μM, 48 hours
NCI-H226 = test: cells; conditions: NCI-H226 (Non-Small Cell Lung Cancer), 10 μM, 48 hours
T-47D = test: cells; conditions: T-47D (Breast Cancer), 10 μM, 48 hours
NCI-H322M = test: cells; conditions: NCI-H322M (Non-Small Cell Lung Cancer), 10 μM, 48 hours
MALME-3M = test: cells; conditions: MALME-3M (Melanoma), 10 μM, 48 hours
LOX IMVI = test: cells; conditions: LOX IMVI (Melanoma), 10 μM, 48 hours
EKVX = test: NCI cancer cell cytotoxicity assay, Non-Small Cell Lung Cancer EKVX; conditions: 10 μM, 48 hours

SMILES	growth percentage (HCC-2998)	growth percentage (MDA-MB-468)	growth percentage (OVCAR-3)	growth percentage (UO-31)	growth percentage (NCI/ADR-RES)	growth percentage (MOLT-4)	growth percentage (RXF 393)	growth percentage (SK-MEL-2)	growth percentage (KM12)	growth percentage (RPMI-8226)	growth percentage (SF-268)	growth percentage (UACC-62)	growth percentage (OVCAR-8)	growth percentage (SN12C)	growth percentage (PC-3)	growth percentage (K-562)	growth percentage (OVCAR-5)	growth percentage (SNB-75)	growth percentage (HT29)	growth percentage (SF-539)	further results
O=C1c2cc(Cl)ccc2-c2c(N3CCOCC3)nc3ccccc3c21 [SJ-8, 9-Chloro-6-morpholino-11H-indeno[1,2-c]quinolin-11-one]	107.23%	59.47%	102.34%	45.74%	94.32%	88.74%	114.61%	104.29%	109.99%	83.40%	103.58%	88.33%	95.25%	96.95%	79.64%	89.01%	90.30%	81.55%	91.34%	96.24%	growth percentage (HOP-92): 66.08%; growth percentage (COLO 205): 100.71%; growth percentage (HCT-116): 93.64%; growth percentage (HS 578T): 88.93%; growth percentage (HCT-15): 80.29%; growth percentage (M14): 106.99%; growth percentage (A498): 93.88%; growth percentage (NCI-H226): 87.21%; growth percentage (T-47D): 88.81%; growth percentage (NCI-H322M): 91.28%; growth percentage (MALME-3M): 136.93%; growth percentage (LOX IMVI): 91.20%
CN1CCN(c2nc3ccccc3c3c2-c2ccc(Cl)cc2C3=O)CC1 [SJ-12, 9-Chloro-6-(4-methylpiperazin-1-yl)-11H-indeno[1,2-c]quinolin-11-one]	103.21%	95.71%	93.41%	47.60%	88.19%	92.90%	94.00%	104.36%	99.06%	85.92%	92.35%	96.67%	87.51%	83.57%	82.93%	92.13%	99.31%	70.00%	93.76%	95.23%	growth percentage (HOP-92): 38.50%; growth percentage (COLO 205): 93.65%; growth percentage (HCT-116): 92.78%; growth percentage (HS 578T): 70.47%; growth percentage (HCT-15): 92.83%; growth percentage (M14): 106.31%; growth percentage (A498): 72.81%; growth percentage (NCI-H226): 86.17%; growth percentage (T-47D): 76.27%; growth percentage (NCI-H322M): 87.41%; growth percentage (MALME-3M): 106.59%; growth percentage (LOX IMVI): 87.17%
O=C1c2cc(Cl)ccc2-c2c(SCCO)nc3ccccc3c21 [SJ-25, 6-(2-Hydroxyethylthio)-9-chloro-11H-indeno[1,2-c]quinolin-11-one]	96.27%	77.36%	89.42%	56.23%	73.58%	59.49%	79.39%	95.85%	84.62%	62.28%	96.53%	84.47%	90.21%	84.58%	58.35%	63.81%	112.54%	66.06%	84.03%	100.05%	growth percentage (EKVX): 30.15%; growth percentage (COLO 205): 87.39%; growth percentage (HCT-116): 77.94%; growth percentage (HS 578T): 58.28%; growth percentage (HCT-15): 80.10%; growth percentage (M14): 98.89%; growth percentage (NCI-H226): 80.52%; growth percentage (T-47D): 63.89%; growth percentage (NCI-H322M): 73.47%; growth percentage (MALME-3M): 107.23%; growth percentage (LOX IMVI): 68.41%
O=C1c2cc(Cl)ccc2-c2c(O)nc3ccccc3c21 [SJ-26, 6-Hydroxy-9-chloro-11H-indeno[1,2-c]quinolin-11-one]	102.24%	80.08%	117.80%	70.50%	97.00%	95.10%	99.93%	117.12%	102.73%	90.60%	106.64%	95.17%	107.63%	96.69%	93.44%	97.48%	126.77%	80.33%	102.38%	105.79%	growth percentage (EKVX): 72.14%; growth percentage (COLO 205): 98.25%; growth percentage (HCT-116): 103.43%; growth percentage (HS 578T): 105.98%; growth percentage (HCT-15): 108.54%; growth percentage (M14): 108.50%; growth percentage (NCI-H226): 85.66%; growth percentage (T-47D): 67.23%; growth percentage (NCI-H322M): 90.72%; growth percentage (MALME-3M): 103.37%; growth percentage (LOX IMVI): 86.91%
COc1nc2ccccc2c2c1-c1ccc(Cl)cc1C2=O [SJ-27, 6-Methoxy-9-chloro-11H-indeno[1,2-c]quinolin-11-one]	104.46%	99.51%	111.89%	55.69%	94.29%	110.33%	114.49%	109.44%	98.35%	90.30%	113.64%	74.08%	98.75%	89.48%	74.44%	108.53%	96.81%	59.75%	111.60%	91.49%	growth percentage (HOP-92): 77.75%; growth percentage (COLO 205): 108.91%; growth percentage (HCT-116): 88.60%; growth percentage (HS 578T): 92.74%; growth percentage (HCT-15): 94.98%; growth percentage (M14): 96.50%; growth percentage (A498): 93.51%; growth percentage (NCI-H226): 89.22%; growth percentage (T-47D): 78.97%; growth percentage (NCI-H322M): 99.80%; growth percentage (MALME-3M): 107.54%; growth percentage (LOX IMVI): 116.91%

Reference: US20150197492A1, “NOVEL INDENO[1,2-c]QUINOLIN-11-ONE DERIVATIVES, PREPARATION METHOD AND APPLICATION THEREOF” (National Defense Medical Center, priority 2014, published 2015)
